In patent US7666850B2, “Drug screens based on the newly found role of dystroglycan proteolysis and restoration of dystroglycan function thereof” (The Regents of the University of California, priority 1999, dated 2010):
Entries after “also recorded” stand apart in the source; their conditions may differ.

Experiments:
[1] = tested on: α-dystroglycan shedding, SCg6 mammary carcinoma cells; test: Dystroglycan proteolysis assay: immunoblot detection of α-dystroglycan shed from the cell surface into culture medium; format: cell-based
Description: To ask if shedding was induced by the proteolysis, we treated the cells with a general matrix metaloproteinase (MW) inhibitor, GM6001, to see if α-dystroglycan shedding was inhibited.
Cleavage of a-dystroglycan was detected using cultured cells that cleave and shed dystroglycan from the cell surface. Dystroglycan cleavage was assayed for by immunoblotting to detect the presence of dystroglycan fragments in the medium of cultured cells. Mammary carcinoma cell lines SCg6 or TCL1 were cultured in 10 milliliters (ml) DMEM/F12 medium supplemented with 2% fetal calf serum, 5 μg/ml insulin (Sigma Chemical Co., St. Louis, Mo.), and 50 μg/ml Gentamycin (UCSF Cell Culture Facility). The cells were allowed to grow to 80% confluence in 10 centimeter (cm) plastic tissue culture dishes. The cells were rinsed two times with phosphate-buffered saline (PBS) and the medium was then changed to 10 mls DMEM/F12 medium supplemented with insulin, and Gentamycin, but without added serum. The cells were incubated in this serum-free medium for 48 hrs, then this conditioned medium was harvested and filtered through 0.4 µm filters to remove cells or cell debris. The harvested medium was concentrated from 10 ml to approximately 1.0 ml using a CENTRIPREP-30 concentrator (Amicon, Beverly, Mass.). The concentrated supernatant was added to 1/10th volume of 10× sample buffer (50% glycerol, 100 mM acetic acid, 10% SDS (w/v), 12.5% (v/v) β-mercaptoethanol, bromophenol blue) and heated at 70 degrees Celsius for 15 minutes prior to loading on SDS-polyacrylamide (SDS-PAGE) gels, and subjected to immunoblot analysis. Assays of dystroglycan cleavage and shedding in the presence of the metaloproteinase inhibitor GM6001 (AMS Scientific, Pleasant Hills, Calif.) were performed in the same manner, with varying concentrations of GM6001, or the control C1004 (AMS Scientific), diluted into the serum-free culture medium at the beginning of the 48 hour incubation. To compare treatments, equivalent volumes of conditioned medium from each treated cell population were loaded onto the gel to determine the relative quantities of dystroglycan shed into the medium.
After separation on an 8% SDS-PAGE gels, the proteins were electrophoretically transferred to Immobilon-P membranes (Millipore Corp., Bedford, Mass.) using methanol transfer buffer (20 mM Tris pH 8.3, 150 mM glycine, 0.5% SDS, 20% methanol). Following the transfer, the membranes were blocked for two hours in low salt TBST buffer (20 mM Tris-HCI, pH 8.0, 100 mM NaCl, 1.0% Tween-20 detergent) plus 5% non-fat dried milk (Lucerne). After blocking, the membranes were incubated for 45 minutes with the IIH6 monoclonal antibody (primary antibody against α-dystroglycan, obtained from Dr. Kevin Campbell, University of Iowa) diluted in low salt TBST plus 5% dried milk. The primary antibody was diluted 1:20 from a concentrated (8×) stock of hybridoma supernatant. After incubation with the primary antibody, the membranes were washed with low-salt TBST and incubated 45 minutes with an horse radish peroxidase (HRP) conjugated secondary antibody (anti-IgM Product # A 8786 from Sigma).

[2] = tested on: HMT-3522-T4 (T4) cells; test: 3-dimensional basement membrane (3D-BM) assay, HMT-3522-T4 cells; format: cell-based
Source text: Dystroglycan function reduces the growth potential and induces polarity in normal mammary epithelial cells exposed to basement membrane proteins. […] Because dystroglycan function is lost in part by proteolytic shedding, inhibition of dystroglycan shedding can restore or enhance dystroglycan function. Therefore, restoration of dystroglycan function can be used as an assay for inhibitors of the metaloproteinase(s) cleaving and shedding α-dystroglycan. […] The cells were counted and 100,000 cells were resuspended in 0.3-0.5 mls of growth factor-reduced Matrigel (Collaborative Research). This mixture was placed into a 1.5 cm diameter cell culture well, and incubated at 37 degrees Celsius for 30 minutes to induce gelling of the Matrigel. Subsequently, the gelled cell-BM protein mixture was overlayed with growth medium with or without the addition of protease inhibitors or control substances. The cells were cultured at 37 degrees Celsius in a cell culture incubator at 5% carbon dioxide. The growth medium and additives were changed every two days.
The assay was allowed to proceed from 6 to 10 days. […] Measures of polarity and reduced growth potential can be easily optimized by methods existing in the art.

[3] = tested on: MDA-MD-231 cells; test: 3-dimensional basement membrane (3D-BM) assay, MDA-MD-231 cells; format: cell-based
Source text: Dystroglycan function reduces the growth potential and induces polarity in normal mammary epithelial cells exposed to basement membrane proteins. […] Because dystroglycan function is lost in part by proteolytic shedding, inhibition of dystroglycan shedding can restore or enhance dystroglycan function. Therefore, restoration of dystroglycan function can be used as an assay for inhibitors of the metaloproteinase(s) cleaving and shedding α-dystroglycan. Carcinoma cell lines, including the HMT-3522-T4 cells and MDA-MD-231 cells, were cultured within the 3-dimensional basement membrane (3-D BM) assay. To accomplish this the cells were trypsinized from routine cell culture, washed once with DMEM/F12 medium, treated with soybean trypsin inhibitor, washed again with DMEM/F12 medium and resuspended in growth medium [DMEM/F12, supplemented with insulin 250 ng/ml (Boehringer Mannheim, Indianapolis, Ind.), 10 μg/ml transferrin (Sigma), 2.6 ng/ml sodium selenite (Collaborative Research), 1.4×10^−6 M hydrocortisone (Collaborative Research), 1×10^−10 M β-estradiol (Sigma),5 μg/ml prolactin (Sigma)]. The cells were counted and 100,000 cells were resuspended in 0.3-0.5 mls of growth factor-reduced Matrigel (Collaborative Research). This mixture was placed into a 1.5 cm diameter cell culture well, and incubated at 37 degrees Celsius for 30 minutes to induce gelling of the Matrigel. Subsequently, the gelled cell-BM protein mixture was overlayed with growth medium with or without the addition of protease inhibitors or control substances. The cells were cultured at 37 degrees Celsius in a cell culture incubator at 5% carbon dioxide. The growth medium and additives were changed every two days.
The assay was allowed to proceed from 6 to 10 days. Over this time, the cells grew from single cells within the gel to form multicellular aggregates with variable characteristics, from polarized and growth arrested (normal phenotype), to disorganized and growing (tumorigenic phenotype), to invasive. […]

[4] = tested on: MMPs; details: MPs other than some ADAMs; cited from earlier work

| Compound | shedding of α-dystroglycan (proteolysed form) into the culture supernatant ([1]; 40 μM, FIG. 1B) | shedding of α-dystroglycan in the supernatant across a concentration series ([1]; five different concentrations, FIG. 1C) | Ki ([1]; titration of GM6001, FIG. 1C, 48 h serum-free medium, read-out: Ki (pKi) for inhibition of α-dystroglycan shedding (converted)) [µM] | concentration giving nearly complete inhibition of α-dystroglycan shedding ([1]; titration, FIG. 1C) | effect on tumor cell growth characteristics in the 3D-BM assay ([2]; 2 μM, FIG. 3B) | tumorigenic phenotype in the 3D-BM assay ([2]; 40 μM, FIGS. 3C, 3D) | cell growth after removal of the inhibitor ([2]; removal for 7 days following a ten-day incubation with the inhibitor) | effect on tumor cell growth characteristics in the 3D-BM assay ([3]; 2 μM, FIG. 3F) | growth and invasion of MDA-MD-231 cells in the 3D-BM assay ([3]; 40 μM, FIGS. 3G, 3H) | concentration required to reduce growth (and invasion) of MDA-MD-231 cells ([3]; 6 to 10 days in Matrigel) | GM6001 concentrations that generally inhibit other MP's [4] | reversion of the T4 tumor cell line in the 3D-BM assay ([2]; 10 μM) |
| --- | --- | --- | --- | --- | --- | --- | --- | --- | --- | --- | --- | --- |
| CNC(=O)[C@H](Cc1c[nH]c2ccccc12)NC(=O)[C@@H](CC(=O)NO)CC(C)C [GM6001, N-[2(R)-2(hydroxamidocarbonylmethyl)-4-methylpentanoyl]-L-tryptophane methylamide] | blocked; also recorded: no longer detected | differentially blocked | ~10 | over 25 μM | No effect | Complete “reversion” of the tumor phenotype; also recorded: caused growth arrest, polarization and reversion to a non-tumorigenic phenotype | did not permit a re-initiation of cell growth | No effect | potently inhibited the growth and invasion | over 20 μM | below 30 μM |  |
| TAPI |  |  |  |  |  |  |  |  |  |  |  | revert |
